pIC50: −log10 of the molar value. Activity calls are given as the source filed them. The rule behind the calls is not given here.
Experiments:
[1] = biological target: T1, Tyrosine-protein kinase BTK (Homo sapiens, UniProt Q06187); assay: Inhibition of human BTK assessed as residual kinase activity at 1 uM relative to control
[2] = biological target: Maternal embryonic leucine zipper kinase (Homo sapiens, UniProt Q14680); assay: Inhibition of human MELK
[3] = biological target: T1, Tyrosine-protein kinase BTK; assay: Inhibition of human BTK
HDLEC [4] = assay: Anti-lymphangiogenic activity against human dermal lymphatic endothelial cells assessed as inhibition of VEGF-C-mediated tube formation at 100 nM incubated for 12 hrs by inverted microscopy; type: functional, tissue-based
HDLEC [5] = assay: Antimigratory activity against VEGF-C-induced human dermal lymphatic endothelial cells assessed as cell migration at 100 nM incubated for 12 hrs by inverted microscopy based by transwell assay; type: functional, tissue-based
HDLEC [6] = assay: Downregulation of MMP2 protein expression in human dermal lymphatic endothelial cells incubated for 24 hrs by Western blot analysis; type: functional, tissue-based
[7] = biological target: T2, Vascular endothelial growth factor receptor 3 (Homo sapiens, UniProt P35916); assay: Inhibition of VEGFR3 in human dermal lymphatic endothelial cells assessed as inhibition of STAT5 phosphorylation incubated for 24 hrs by Western blot analysis; conditions: HDLEC
T2 sequence (P35916 whole entry): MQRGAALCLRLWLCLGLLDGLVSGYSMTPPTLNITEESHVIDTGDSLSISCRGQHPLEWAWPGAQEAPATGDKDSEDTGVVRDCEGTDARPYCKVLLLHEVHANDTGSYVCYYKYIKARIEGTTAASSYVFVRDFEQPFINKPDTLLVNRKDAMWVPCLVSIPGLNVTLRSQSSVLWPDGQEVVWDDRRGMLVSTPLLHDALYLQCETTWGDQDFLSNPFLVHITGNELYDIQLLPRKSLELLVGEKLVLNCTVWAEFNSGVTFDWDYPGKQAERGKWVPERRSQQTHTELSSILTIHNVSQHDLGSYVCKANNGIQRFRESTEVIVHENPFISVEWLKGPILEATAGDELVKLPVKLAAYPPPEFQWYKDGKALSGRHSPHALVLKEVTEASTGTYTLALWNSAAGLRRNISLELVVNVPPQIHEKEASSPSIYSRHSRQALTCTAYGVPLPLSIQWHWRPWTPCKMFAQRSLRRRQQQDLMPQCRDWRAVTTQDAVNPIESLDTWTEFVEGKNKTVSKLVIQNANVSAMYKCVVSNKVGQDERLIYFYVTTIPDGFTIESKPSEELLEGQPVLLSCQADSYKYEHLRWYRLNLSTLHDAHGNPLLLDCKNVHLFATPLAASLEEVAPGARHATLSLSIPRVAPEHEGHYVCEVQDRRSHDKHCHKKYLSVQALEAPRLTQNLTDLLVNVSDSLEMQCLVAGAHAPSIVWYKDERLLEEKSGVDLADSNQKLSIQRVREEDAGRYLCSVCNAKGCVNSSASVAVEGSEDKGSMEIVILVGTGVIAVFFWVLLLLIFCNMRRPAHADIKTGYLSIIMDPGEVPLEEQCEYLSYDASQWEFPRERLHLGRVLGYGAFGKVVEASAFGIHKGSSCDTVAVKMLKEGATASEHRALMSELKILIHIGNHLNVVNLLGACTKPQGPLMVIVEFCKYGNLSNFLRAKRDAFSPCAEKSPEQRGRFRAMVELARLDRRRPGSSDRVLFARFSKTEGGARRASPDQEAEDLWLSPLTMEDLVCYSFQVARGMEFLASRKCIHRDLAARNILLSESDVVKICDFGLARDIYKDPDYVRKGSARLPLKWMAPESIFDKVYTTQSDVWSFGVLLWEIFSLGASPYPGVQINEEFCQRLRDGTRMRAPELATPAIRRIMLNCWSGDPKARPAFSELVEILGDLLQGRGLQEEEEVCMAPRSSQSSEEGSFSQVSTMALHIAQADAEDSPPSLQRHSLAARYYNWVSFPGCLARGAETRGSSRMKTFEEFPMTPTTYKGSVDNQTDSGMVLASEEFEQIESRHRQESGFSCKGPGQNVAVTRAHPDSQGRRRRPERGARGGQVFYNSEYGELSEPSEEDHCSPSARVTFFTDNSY

MDA-MB-231 [8] = assay: Induction of apoptosis in human MDA-MB-231 cells assessed as apoptotic cells at 2.5 to 5 uM incubated for 48 hrs by flow cytometry (reference value: 7.2%); type: functional; conditions: dose 2.5-5 µM
MDA-MB-231 [9] = assay: Induction of apoptosis in human MDA-MB-231 cells assessed as upregulation of caspase 3 up to 10 uM incubated for 24 hrs by Western blotting analysis; type: functional, cell-based; conditions: dose microM <=10, time 24.0 hrs
MDA-MB-436 [10] = assay: Induction of apoptosis in human MDA-MB-436 cells assessed as upregulation of Bax expression up to 10 uM incubated for 24 hrs by Western blotting analysis; type: functional, cell-based; conditions: dose microM <=10, time 24.0 hrs
MDA-MB-436 [11] = assay: Induction of apoptosis in human MDA-MB-436 cells assessed as upregulation of caspase 3 up to 10 uM incubated for 24 hrs by Western blotting analysis; type: functional, cell-based; conditions: dose microM <=10, time 24.0 hrs
MDA-MB-436 [12] = assay: Induction of apoptosis in human MDA-MB-436 cells assessed as cleaved caspase 3 up to 10 uM incubated for 24 hrs by Western blotting analysis; type: functional, cell-based; conditions: dose microM <=10, time 24.0 hrs
MDA-MB-231 [13] = assay: Downregulation of MMP2 protein expression in human MDA-MB-231 cells up to 10 uM incubated for 24 hrs by Western blot analysis; type: functional, cell-based; conditions: dose microM <=10, time 24.0 hrs
MDA-MB-436 [14] = assay: Upregulation of E-cadherin protein expression in human MDA-MB-436 cells up to 10 uM incubated for 24 hrs by Western blot analysis; type: functional, cell-based; conditions: dose microM <=10, time 24.0 hrs
[15] = biological target: T2, Vascular endothelial growth factor receptor 3; assay: Inhibition of VEGFR3 in human MDA-MB-231 cells assessed as inhibition of STAT5 phosphorylation at 2.5 uM incubated for 24 hrs by Western blot analysis; type: cell-based
[16] = biological target: T2, Vascular endothelial growth factor receptor 3; assay: Inhibition of VEGFR3 phosphorylation in human MDA-MB-436 cells at 2.5 uM incubated for 24 hrs by Western blot analysis; type: cell-based
[17] = biological target: T2, Vascular endothelial growth factor receptor 3; assay: Inhibition of VEGFR3 in human MDA-MB-436 cells assessed as inhibition of STAT5 phosphorylation at 2.5 uM incubated for 24 hrs by Western blot analysis; type: cell-based
[18] = Cmax in Sprague-Dawley rat at 1 mg/kg, iv by LC-MS analysis; type: ADME, organism-based; design: route intravenous, dose 1 mg/kg; conditions: in vivo
[19] = AUC (0 to t) in Sprague-Dawley rat at 10 mg/kg, po by LC-MS analysis; type: ADME, organism-based; design: dose 10 mg/kg; conditions: in vivo
[20] = AUC (0 to infinity) in Sprague-Dawley rat at 10 mg/kg, po by LC-MS analysis; type: ADME, organism-based; design: route oral, time infinity, dose 10 mg/kg; conditions: in vivo
[21] = Clearance in Sprague-Dawley rat at 1 mg/kg, iv by LC-MS analysis; type: ADME, organism-based; conditions: in vivo
Danio rerio = organism: Danio rerio; assay: Antiangiogenesis activity against transgenic zebrafish with GFP-labeled vascular endothelial cells assessed as inhibition of subintestinal vessels at 10 uM incubated for 24 hrs by fluorescence microscopy; type: functional, organism-based
[22] = Toxicity in BALB/c mouse xenografted with MDA-MB-231 cells assessed as uric acid level in blood at 300 mg/kg, po; type: organism-based; conditions: in vivo
[23] = Toxicity in BALB/c mouse xenografted with MDA-MB-231 cells assessed as change in spleen at 300 mg/kg, po by hematoxylin and eosin staining based analysis; type: organism-based; conditions: in vivo
Mus musculus [24] = assay: Decrease in Ki-67 level in BALB/c mouse xenografted with MDA-MB-231 cells in tumor tissue at 25 mg/kg, po by immunohistochemistry analysis; type: functional, organism-based
[25] = biological target: Vascular endothelial growth factor receptor 3 (Mus musculus) (UniProt P35917); assay: In vivo inhibition of VEGFR3 phosphorylation in BALB/c mouse xenografted with MDA-MB-231 cells at 25 mg/kg, po by immunohistochemistry analysis; type: functional, organism-based
Vascular endothelial growth factor receptor 3 (Mus musculus), sequence (P35917 whole entry): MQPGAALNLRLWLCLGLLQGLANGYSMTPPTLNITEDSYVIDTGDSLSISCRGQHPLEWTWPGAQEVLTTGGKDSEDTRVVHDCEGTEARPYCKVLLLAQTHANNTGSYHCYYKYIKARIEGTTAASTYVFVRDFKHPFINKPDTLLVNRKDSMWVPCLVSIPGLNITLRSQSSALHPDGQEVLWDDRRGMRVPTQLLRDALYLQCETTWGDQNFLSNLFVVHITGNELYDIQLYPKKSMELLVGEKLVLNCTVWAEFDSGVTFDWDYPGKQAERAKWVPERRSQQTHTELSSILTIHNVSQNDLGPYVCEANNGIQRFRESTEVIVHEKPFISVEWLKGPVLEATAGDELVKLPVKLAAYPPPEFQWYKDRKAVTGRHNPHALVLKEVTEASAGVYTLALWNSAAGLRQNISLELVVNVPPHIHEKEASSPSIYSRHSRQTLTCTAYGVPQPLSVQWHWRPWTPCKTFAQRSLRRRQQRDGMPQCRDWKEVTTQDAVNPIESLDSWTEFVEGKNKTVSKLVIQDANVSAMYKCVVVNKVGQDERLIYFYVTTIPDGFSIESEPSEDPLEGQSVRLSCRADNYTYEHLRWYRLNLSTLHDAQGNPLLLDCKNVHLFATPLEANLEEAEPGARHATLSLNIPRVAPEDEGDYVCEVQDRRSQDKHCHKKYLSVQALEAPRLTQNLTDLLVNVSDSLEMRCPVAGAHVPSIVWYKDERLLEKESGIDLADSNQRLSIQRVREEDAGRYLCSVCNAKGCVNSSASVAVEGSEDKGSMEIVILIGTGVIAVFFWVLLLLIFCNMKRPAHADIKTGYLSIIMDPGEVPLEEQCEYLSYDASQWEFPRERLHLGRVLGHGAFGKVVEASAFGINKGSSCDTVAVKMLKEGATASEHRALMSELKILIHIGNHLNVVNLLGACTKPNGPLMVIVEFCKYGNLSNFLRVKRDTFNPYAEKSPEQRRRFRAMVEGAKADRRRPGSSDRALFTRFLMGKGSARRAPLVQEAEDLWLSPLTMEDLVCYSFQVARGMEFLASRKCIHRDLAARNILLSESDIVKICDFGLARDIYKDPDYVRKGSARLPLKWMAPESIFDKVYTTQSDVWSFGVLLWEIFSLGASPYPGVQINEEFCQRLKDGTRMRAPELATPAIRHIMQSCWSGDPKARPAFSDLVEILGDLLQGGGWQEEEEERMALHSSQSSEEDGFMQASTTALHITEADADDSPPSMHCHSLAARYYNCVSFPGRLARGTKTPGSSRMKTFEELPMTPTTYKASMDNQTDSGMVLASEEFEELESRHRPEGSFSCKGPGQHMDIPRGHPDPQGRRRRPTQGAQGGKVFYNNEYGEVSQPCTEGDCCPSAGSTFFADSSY

[26] = biological target: Vascular endothelial growth factor receptor 3 (Mus musculus) (UniProt P35917); assay: In vivo inhibition of VEGFR3 phosphorylation in BALB/c mouse xenografted with MDA-MB-231 cells assessed as decrease in STAT5 phosphorylation at 25 mg/kg, po by immunohistochemistry analysis; type: functional, organism-based
[27] = biological target: Vascular endothelial growth factor receptor 3 (Mus musculus) (UniProt P35917); assay: In vivo inhibition of VEGFR3 phosphorylation in BALB/c mouse xenografted with MDA-MB-231 cells assessed as decrease in ERK1/2 phosphorylation at 25 mg/kg, po by immunohistochemistry analysis; type: functional, organism-based
Mus musculus [28] = assay: In vivo inhibition of VEGFR2 phosphorylation in BALB/c mouse xenografted with MDA-MB-231 cells at 25 mg/kg, po by immunohistochemistry analysis; type: functional, organism-based
Mus musculus [29] = assay: Upregulation of E-cadherin protein expression human MDA-MB-231 cells injected into vein of BALB/c mouse lung metastatic model at 50 mg/kg, po once a day measured on day 21 by […]; type: functional, organism-based
Mus musculus [30] = assay: Downregulation of MMP2 protein expression human MDA-MB-231 cells injected into vein of BALB/c mouse lung metastatic model at 50 mg/kg, po once a day measured on day 21 by […]; type: functional, organism-based

T1 sequence (Q06187 whole entry): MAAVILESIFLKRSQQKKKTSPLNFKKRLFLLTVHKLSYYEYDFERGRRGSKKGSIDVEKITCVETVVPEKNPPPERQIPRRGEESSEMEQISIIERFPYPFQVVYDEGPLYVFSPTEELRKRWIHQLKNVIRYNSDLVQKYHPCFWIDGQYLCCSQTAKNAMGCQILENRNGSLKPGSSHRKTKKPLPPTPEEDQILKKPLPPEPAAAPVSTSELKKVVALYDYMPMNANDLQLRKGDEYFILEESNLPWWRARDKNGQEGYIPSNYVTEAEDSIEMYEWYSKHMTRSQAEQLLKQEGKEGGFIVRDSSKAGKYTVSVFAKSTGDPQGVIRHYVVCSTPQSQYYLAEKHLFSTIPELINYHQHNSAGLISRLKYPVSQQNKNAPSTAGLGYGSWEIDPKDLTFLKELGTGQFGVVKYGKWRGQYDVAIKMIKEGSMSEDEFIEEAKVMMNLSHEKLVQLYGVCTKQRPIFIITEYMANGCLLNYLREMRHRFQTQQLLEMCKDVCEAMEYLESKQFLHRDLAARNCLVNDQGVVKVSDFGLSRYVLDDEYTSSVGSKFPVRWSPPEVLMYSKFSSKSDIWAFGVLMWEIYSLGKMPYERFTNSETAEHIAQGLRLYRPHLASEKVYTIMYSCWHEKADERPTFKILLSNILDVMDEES
Maternal embryonic leucine zipper kinase, sequence (Q14680 whole entry): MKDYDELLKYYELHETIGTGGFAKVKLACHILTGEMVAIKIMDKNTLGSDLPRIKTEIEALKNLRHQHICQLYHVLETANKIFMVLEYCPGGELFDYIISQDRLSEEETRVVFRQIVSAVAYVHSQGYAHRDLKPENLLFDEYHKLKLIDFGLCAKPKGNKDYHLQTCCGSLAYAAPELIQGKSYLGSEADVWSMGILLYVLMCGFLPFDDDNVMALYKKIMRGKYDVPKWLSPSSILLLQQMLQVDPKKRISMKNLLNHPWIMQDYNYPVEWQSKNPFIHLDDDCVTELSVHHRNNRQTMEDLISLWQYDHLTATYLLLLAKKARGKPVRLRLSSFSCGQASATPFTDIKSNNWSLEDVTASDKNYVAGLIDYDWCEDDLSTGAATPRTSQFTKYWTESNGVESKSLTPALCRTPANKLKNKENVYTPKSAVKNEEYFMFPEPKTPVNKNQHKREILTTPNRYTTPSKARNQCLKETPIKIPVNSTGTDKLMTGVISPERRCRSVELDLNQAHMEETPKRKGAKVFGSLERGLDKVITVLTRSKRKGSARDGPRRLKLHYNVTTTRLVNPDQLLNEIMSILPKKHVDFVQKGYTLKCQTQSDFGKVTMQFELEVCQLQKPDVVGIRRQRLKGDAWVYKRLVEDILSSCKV

Work on `CN1CCN(c2ccc(-c3cc4c(N5CCN(C(=O)Nc6ccc(Cl)c(C(F)(F)F)c6)CC5)ncnc4s3)cc2)CC1` yielded an Activity [1] of 19%, a pIC50 [2] of 6.16 and a pIC50 [3] of 6.14. For the same compound, the Activity (HDLEC [4]) was “Active”, the Activity (HDLEC [5]) was “Active” and the Activity (HDLEC [6]) was “Active”. The inhibition [7] was “Dose-Dependent Effect”, the Activity (MDA-MB-231 [8]) was 19.7% and the Activity (MDA-MB-231 [9]) was “Active”. For the same compound, the Activity (MDA-MB-436 [10]) was “Active”, the Activity (MDA-MB-436 [11]) was “Active” and the Activity (MDA-MB-436 [12]) was “Active”. For the same compound, the Activity (MDA-MB-231 [13]) was “Active”, the Activity (MDA-MB-436 [14]) was “Active” and the inhibition [15] was “Active”. For the same compound, the inhibition [16] was “Active”, the inhibition [17] was “Active” and the Cmax [18] was 420 ng/mL. For the same compound, the AUC(0-t) [19] was 9220 ng·h/mL, the AUC(0-inf) [20] was 12300 ng·h/mL and the clearance [21] was 4.8 mL/min/kg. For the same compound, the inhibition (Danio rerio) was “Active”, the Activity [22] was “Non-Toxic” and the Activity [23] was “Non-Toxic”. For the same compound, the Activity (Mus musculus [24]) was “Active”, the Activity [25] was “Active” and the Activity [26] was “Active”. For the same compound, the Activity [27] was “Active”, the Activity (Mus musculus [28]) was “inactive” and the Activity (Mus musculus [29]) was “Active”. For the same compound, the Activity (Mus musculus [30]) was “Active”.

Source: ChEMBL document CHEMBL4837240 (J Med Chem, 2021)
